# Experiments:
# [1] = tested on: CD8 positive cells; conditions: rabbit, in vivo
# Procedure: (§1) Twelve pigmented rabbits weighing between 2 and 4 kg were used. Animals were anesthetized with ketamine HCI (40 mg/kg) and xylocaine (5 mg/kg). Tetracaine HCI (0.5%) was used for topical anesthesia. Tropicamide (1%) and phenylephrine (2.5%) eye drops were used for pupillary dilation. Euthanasia was accomplished with sodium pentobarbital (150 mg/kg) intracardiac injection. Two rabbits were sacrificed at day 2, 7, 14, 28, 42 and 56 following PDT.
# (§2) Ten rabbits were injected intravenously with 2 mg/kg BPD-MA, and 689 nm laser light at 600 mW/cm^2 was successively applied on three 1.25-mm spot in one eye according to the following schedule:
# (§3) All eyes were enucleated immediately after euthanasia. After the cornea, lens, and vitreous were removed, experimental area was delineated with sharp cuts. Tissue was placed in freezing compound (OCT) and frozen in liquid nitrogen. Serial cryosections were cut and stored at −70° C. Non-treated eyes were used for control. Cryosections were stained with H&E and immunohistochemical staining.
# (§4) Frozen sections were thawed and fixed with fresh acetone for 5 minutes. Endogenous peroxide activity was blocked with 0.3% hydrogen peroxide in phosphate buffered saline (PBS). After blocked with PBS and 1% bovine serum albumin (BSA), the specific primary antibodies were diluted in PBS with 1% BSA and incubated at room temperature for an hour. […]
# [2] = tested on: CD4, CD8, Macrophage and MHC-II positive cells; assay: Immunohistochemistry of inflammatory cells after PDT (combined statements)
# Procedure: as §1, §2, §3
# Frozen sections were thawed and fixed with fresh acetone for 5 minutes. Endogenous peroxide activity was blocked with 0.3% hydrogen peroxide in phosphate buffered saline (PBS). After blocked with PBS and 1% bovine serum albumin (BSA), the specific primary antibodies were diluted in PBS with 1% BSA and incubated at room temperature for an hour. Detection was achieved using ABC Elite detection kit (DAKO) with aminoethylcarbizole as the chromogen. Sections were counterstained with light Mayers' hematoxylin, washed with tap water, and mounted in water soluble mounting medium (Biomeda, Catalogue no. MO1).
# (§5) Normal-dose PDT was performed as phase 1 in three rabbits.
# (§6) Immediately after each individual light treatment with normal-dose PDT, 5 mm Spot concentric with the 1.25 mm spot was exposed to 15 J/cm^2 (25 sec) in three rabbits. FA and fundus photography was taken as phase 1, and animals were sacrificed for immunohistochemical study at day 28 following PDT.
# [3] = tested on: macrophages; conditions: rabbit, in vivo
# Procedure: Tetracaine HCI (0.5%) was used for topical anesthesia.
# All eyes were enucleated immediately after euthanasia. […] Serial cryosections were cut and stored at −70° C. Non-treated eyes were used for control. Cryosections were stained with H&E and immunohistochemical staining.
# [4] = tested on: CD4 positive cells; conditions: rabbit, in vivo
# Procedure: as §1, §2, §3, §4
# [5] = tested on: normal rabbit choroid; conditions: in vivo
# Procedure: as §1, §2
# Following PDT, animals were kept in a dark room overnight.
# Fluorescein angiography (FA) and fundus photography were performed as 2 baseline before PDT, the day after PDT, weekly, and at the day of sacrifice.
# as §5, §6
# [6] = tested on: MHC-II positive cells; conditions: rabbit, in vivo
# Procedure: as §1, §2, §3, §4
# [7] = tested on: normal rabbit choroid; conditions: in vivo; remark: listed apart in the source
# Procedure: as §1, §2, §3
substance,measurement,setting,value
"9-methyl (I) and 13-methyl (II) trans-(±)-18-ethenyl-4,4a-dihydro-3,4-bis(methoxycarbonyl)-4a,8,14,19-tetramethyl-23H,25H-benzo[b]porphine-9,13-dipropanoate [BPD-MA]",change of CD8 positive cells versus control,[1],statistically significantly increased
same,persistence of inflammatory reactions after therapeutic PDT,[2]; normal rabbit choroid,≤ 56 days
same,"change of CD4, CD8, Macrophage and MHC-II positive cells compared to control","[2]; rabbit, Phase 2, 4 weeks after low-dose PDT",slightly increased
same,"effect of additional concentric large diameter low-dose PDT on the increase in CD4, CD8, Macrophage and MHC-II positive cells after normal-dose PDT","[2]; rabbit, Phase 3, day 28",suppressed the increase
same,effect of low dose light following therapeutic PDT on inflammation,"[2]; rabbit, low dose light 15 J/cm^2",effectively inhibited the increase in inflammation
same,Macrophage positive cells after the additional low-dose PDT,[3],slightly increased
same,change of macrophages versus control,[3],statistically significantly increased
same,change of CD4 positive cells in treated area,[4],no significant increase
same,change of CD4 positive cells versus control,[4],statistically significantly increased
same,neovascular leakage on fluorescein angiography,[5],no neovascular leakages
same,change of MHC-II positive cells versus control,[6],statistically significantly increased
same,dependence of histologic damage on dose of light,[7],more severe with the higher dose of light
same,"histologic damage of RPE layer, photoreceptor layer, outer nuclear and plexiform layer",[7],damaged in all cases
same,histologic damage of inner nuclear layer,[7],a little damages but generally preserved well
same,state of choriocapillaries and larger choroidal vessels after PDT,[7],"collapsed after PDT, but not the larger choroidal vessels"
same,time for RPE layer to begin to become a monolayer again,[7],in two weeks

# Source: US8106038B2, “Method for reducing or preventing PDT related inflammation” (QLT Inc., priority 2001, dated 2012)
